# Data published in patent US8378104B2 (OSI Pharmaceuticals, LLC, priority 2010, dated 2013).
# Structures can show the parent of a compound that is named as a salt.
# What was measured:
# TAK1-TAB1 fusion protein = molecular target: T1, TAK1-TAB1 fusion protein (Homo sapiens, UniProt O43318); experiment: TAK1 biochemical assay (AlphaScreen, GST-MAP2K7 substrate); conditions: TAK1-TAB1 fusion protein, GST-MAP2K7 substrate; read-out: mean TAK1 IC50 (Col. A)
# T1 construct: purchased Carna
# T1 sequence (O43318 with tags, fused parts or gaps limits assumed): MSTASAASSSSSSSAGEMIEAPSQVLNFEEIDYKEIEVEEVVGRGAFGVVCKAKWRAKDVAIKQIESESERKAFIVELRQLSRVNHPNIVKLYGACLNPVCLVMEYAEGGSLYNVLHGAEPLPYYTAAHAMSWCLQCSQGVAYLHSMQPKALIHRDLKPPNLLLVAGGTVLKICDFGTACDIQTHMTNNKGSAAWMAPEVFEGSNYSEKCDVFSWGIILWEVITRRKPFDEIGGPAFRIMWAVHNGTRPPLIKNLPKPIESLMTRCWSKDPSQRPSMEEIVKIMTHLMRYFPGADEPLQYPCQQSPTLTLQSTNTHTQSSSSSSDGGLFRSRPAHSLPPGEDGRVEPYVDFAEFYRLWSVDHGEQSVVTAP
# pJNK in HCT-116 cells = experiment: Phospho-JNK (Thr183/Tyr185) Meso Scale ELISA assay, TNFα-stimulated HCT-116 cells; assay type: cell-based; conditions: Homo sapiens, read-out: mean HCT-116 pJNK ELISA IC50 (Col. B)
# Outline: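 Meso Scale ELISA read of phospho-JNK (Thr183/Tyr185) in lysed HCT-116 cells. Cells were serum-reduced to 1% FCS for 2 hours, exposed to test drug for 4 hrs at 37° C, then given 10 ng/mL TNFα (final) for 10 minutes before lysis.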
# p-p38 in HCT-116 cells = experiment: Phospho-p38 Meso Scale ELISA assay, TNFα-stimulated HCT-116 cells; assay type: cell-based; conditions: Homo sapiens, read-out: mean HCT-116 p-p38 ELISA IC50 (Col. C)
# Procedure: Detailed below are ELISA assays for pJNK and p38, and a TAK1 biochemical assay. […] In Table 1, Col.
# • 1. Plate HCT-116 cells at 25,000 per well in 100 uL in 96 well clear dishes in normal growth medium. Day 2: • 1. Aspirate medium and replace with 90 μl reduced serum growth medium (1% FCS), incubate for 2 hours at 37° C. • 2. Make drugs at 10× in reduced serum medium and add 10 uL per well. • 3. Incubate at 37° C. for 4 hrs. • 4. Bring capture plates to room temperature. • 5. Block with 150 μl Blocking Solution (provided with kit) (600 mg Blocker A into 20 mL 1× Wash Buffer per plate) at room temperature with shaking. • 6. Wash plates 4× with 200 μl 1× wash buffer (10× provided with kit) before transferring lysates. • 7. Dilute TNFα to […] in reduced serum medium (this makes a 10× working stock). • 8. Add 10 μl TNFα to all wells except negative control wells, final concentration is 10 ng/mL. • 9. Incubate at 37° C. for 10 minutes. • 10. Remove medium by flicking into sink • 11. Wash cells with 100 uL ice cold PBS. • 12. Remove PBS by flicking into sink and patting on paper towels. • 13. Lyse cells in 50 μl ice cold 1× Complete Lysis Buffer plus Phosphatase and Protease inhibitors (all provided with kit) (10 mL Tris Lysis Buffer+200 μl Protease inhibitor solution+100 μl Phosphatase inhibitor I+100 μl Phosphatase inhibitor II). • 14. Incubate with shaking at 4° C. for 30 minutes. • 15. Transfer 45 μl to capture plate, cover with adhesive cover, and incubate at 4° C. over night with shaking. • Day 3: • 1. Wash plates 4× with 200 μl 1× wash buffer (10× provided with kit). • 2. […] Incubate at room temperature with shaking for 1 hour. • 4. Wash 4× with 200 μl 1× Wash Buffer. • 5. […] Read on Sector Imager. Phospho-p38 Meso Scale ELISA Assay Day 1: • 1. Plate HCT-116 cells at 25,000 per well in 100 uL in 96 well clear dishes in normal growth medium. zday 2: • 1. Aspirate medium and replace with 90 μl reduced serum growth medium (1% FCS), incubate for 2 hours at 37° C. • 2. Make drugs at 10× in reduced serum medium and add 10 uL per well. • 3. Incubate at 37° C. for 4 hrs. • 4. Bring capture plates to room temperature. • 5. Block with 150 μl Blocking Solution (provided with kit) (600 mg Blocker A into 20 mL 1× Wash Buffer per plate) at room temperature with shaking. • 6. Wash plates 4× with 200 μl 1× wash buffer (10× provided with kit) before transferring lysates. • 7. Dilute TNFα to […] in reduced serum medium (this makes a 10× working stock). • 8. Add 10 μl TNFα to all wells except negative control wells, final concentration is 10 ng/mL. • 9. Incubate at 37° C. for 10 minutes. • 10. Remove medium by flicking into sink • 11. Wash cells with 100 uL ice cold PBS. • 12. Remove PBS by flicking into sink and patting on paper towels. • 13. Lyse cells in 50 μl ice cold 1× Complete Lysis Buffer plus phosphatase and protease inhibitors (all provided with kit) (10 mL Tris Lysis Buffer+200 μl Protease inhibitor solution+100 μl Phosphatase inhibitor I+100 μl Phosphatase inhibitor II). • 14. Incubate with shaking at 4° C. for 30 minutes. • 15. Dilute lysates before transferring to capture plate with 100 μl Complete p38 Lysate • Dilution Buffer (provided with kit) (10 mL of Diluent 20±200 μl Protease inhibitor solution+100 μl Phosphatase inhibitor I+100 μl Phosphatase inhibitor II). • 16. Transfer 50 μl of diluted lysates to capture plate, cover with adhesive cover, and incubate at 4° C. over night with shaking. Day 3: • 1. Wash plates 4× with 200 μl 1× wash buffer (10× provided with kit). • 2. […] Incubate at room temperature with shaking for 1 hour. • 4. Wash 4× with 200 μl 1× Wash Buffer. • 5. […] Read on Sector Imager. TAK1 Biochemical Assay
SMILES,IC50 (TAK1-TAB1 fusion protein) [nM],IC50 (pJNK in HCT-116 cells) [nM],IC50 (p-p38 in HCT-116 cells) [nM]
"CC(=O)N1CCC(n2cc(-c3cnc(N)c4oc(-c5cccc([N+](=O)[O-])c5)cc34)cn2)CC1 [Example 112, 1-(4-{4-[7-amino-2-(3-nitrophenyl)furo[2,3-c]pyridin-4-yl]-1H-pyrazol-1-yl}piperidin-1-yl)ethanone]",< 100,100 to 1000,100 to 1000
"Nc1ncc(-c2cnn(C3CCN(CCF)CC3)c2)c2cc(-c3cccc4cnccc34)oc12 [Example 83, 4-{1-[1-(2-fluoroethyl)piperidin-4-yl]-1H-pyrazol-4-yl}-2-(isoquinolin-5-yl)furo[2,3-c]pyridin-7-amine]",100 to 1000,< 100,100 to 1000
"CC(=O)N1CCC(n2cc(-c3cnc(N)c4oc(-c5ccc(O)c(F)c5)cc34)cn2)CC1 [Example 123, 1-(4-{4-[7-amino-2-(3-fluoro-4-hydroxyphenyl)furo[2,3-c]pyridin-4-yl]-1H-pyrazol-1-yl}piperidin-1-yl)ethanone]",100 to 1000,1000 to 10000,1000 to 10000
"Cn1cc(-c2cnc(N)c3oc(-c4c[nH]c5cnccc45)cc23)cn1 [Example 88, 4-(1-methyl-1H-pyrazol-4-yl)-2-(1H-pyrrolo[2,3-c]pyridin-3-yl)furo[2,3-c]pyridin-7-amine trifluoroacetic acid salt]",< 100,100 to 1000,100 to 1000
"CC(=O)N1CCC(n2cc(-c3cnc(N)c4oc(-c5ccc(O)cc5)cc34)cn2)CC1 [Example 120, 1-(4-{4-[7-amino-2-(4-hydroxyphenyl)furo[2,3-c]pyridin-4-yl]-1H-pyrazol-1-yl}piperidin-1-yl)ethanone]",100 to 1000,100 to 1000,100 to 1000
"Nc1ncc(-c2cn[nH]c2)c2cc(-c3c[nH]c4cnccc34)oc12 [Example 87, 4-(1H-pyrazol-4-yl)-2-(1H-pyrrolo[2,3-c]pyridin-3-yl)furo[2,3-c]pyridin-7-amine trifluoroacetic acid salt]",< 100,100 to 1000,1000 to 10000
"Cn1cc(-c2cnc(N)c3oc(-c4cccc5cnccc45)cc23)cn1 [Example 70, 2-(isoquinolin-5-yl)-4-(1-methyl-1H-pyrazol-4-yl)furo[2,3-c]pyridin-7-amine]",1000 to 10000,100 to 1000,100 to 1000
"Nc1ncc(-c2cnn(C3CCNCC3)c2)c2cc(-c3cccc4cnccc34)oc12 [Example 33, 2-(isoquinolin-5-yl)-4-[1-(piperidin-4-yl)-1H-pyrazol-4-yl]furo[2,3-c]pyridine-7-amine]",100 to 1000,100 to 1000,100 to 1000
"COCCN1CCC(n2cc(-c3cnc(N)c4oc(-c5cccc6cnccc56)cc34)cn2)CC1 [Example 68, 2-(isoquinolin-5-yl)-4-{1-[1-(2-methoxyethyl)piperidin-4-yl]-1H-pyrazol-4-yl}furo[2,3-c]pyridin-7-amine]",100 to 1000,100 to 1000,100 to 1000
"CC(=O)N1CCC(n2cc(-c3cnc(N)c4oc(-c5ccc(O)c(Cl)c5)cc34)cn2)CC1 [Example 136, 1-(4-{4-[7-amino-2-(3-chloro-4-hydroxyphenyl)furo[2,3-c]pyridin-4-yl]-1H-pyrazol-1-yl}piperidin-1-yl)ethanone]",100 to 1000,100 to 1000,1000 to 10000
"CSc1ccc(-c2cc3c(-c4cnn(C5CCN(C(C)=O)CC5)c4)cnc(N)c3o2)cc1 [Example 113, 1-[4-(4-{7-amino-2-[4-(methylsulfanyl)phenyl]furo[2,3-c]pyridin-4-yl}-1H-pyrazol-1-yl)piperidin-1-yl]ethanone]",> 10000,1000 to 10000,1000 to 10000
"Nc1ncc(-c2cnn(C3CCOCC3)c2)c2cc(-c3cccc4cnccc34)oc12 [Example 74, 2-(isoquinolin-5-yl)-4-[1-(tetrahydro-2H-pyran-4-yl)-1H-pyrazol-4-yl]furo[2,3-c]pyridin-7-amine]",100 to 1000,100 to 1000,1000 to 10000

# Results, then the compound that gave them:
IC50 (TAK1-TAB1 fusion protein) [nM],IC50 (pJNK in HCT-116 cells) [nM],IC50 (p-p38 in HCT-116 cells) [nM],SMILES
< 100,< 100,100 to 1000,"Nc1ncc(-c2cnn([C@H]3CC[C@H](O)CC3)c2)c2cc(-c3cccc4cnsc34)oc12 [Example 234, trans-4-{4-[7-amino-2-(1,2-benzothiazol-7-yl)furo[2,3-c]pyridin-4-yl]-1H-pyrazol-1-yl}cyclohexanol]"
1000 to 10000,1000 to 10000,1000 to 10000,"CC(=O)N1CCC(n2cc(-c3cnc(N)c4oc(-c5cccc6nn(C)cc56)cc34)cn2)CC1 [Example 192, 1-(4-{4-[7-amino-2-(2-methyl-2H-indazol-4-yl)furo[2,3-c]pyridin-4-yl]-1H-pyrazol-1-yl}piperidin-1-yl)ethanone]"
1000 to 10000,100 to 1000,1000 to 10000,"CC(=O)N1CCC(n2cc(-c3cnc(N)c4oc(-c5ccc6c(cnn6C)c5)cc34)cn2)CC1 [Example 146, 1-(4-{4-[7-amino-2-(1-methyl-1H-indazol-5-yl)furo[2,3-c]pyridin-4-yl]-1H-pyrazol-1-yl}piperidin-1-yl)ethanone]"
< 100,< 100,< 100,"CNc1ncc(-c2cnn([C@H]3CC[C@H](O)CC3)c2)c2cc(-c3csc4cnccc34)oc12 [Example 281, trans-4-{4-[7-(methylamino)-2-(thieno[2,3-c]pyridin-3-yl)furo[2,3-c]pyridin-4-yl]-1H-pyrazol-1-yl}cyclohexanol]"
100 to 1000,100 to 1000,100 to 1000,"Nc1ncc(-c2cnn([C@H]3CC[C@H](O)CC3)c2)c2cc(-c3ccc(F)c4cnsc34)oc12 [Example 230, trans-4-{4-[7-amino-2-(4-fluoro-1,2-benzothiazol-7-yl)furo[2,3-c]pyridin-4-yl]-1H-pyrazol-1-yl}cyclohexanol diformate salt]"
100 to 1000,1000 to 10000,1000 to 10000,"CC(=O)N1CCC(n2cc(-c3cnc(N)c4oc(-c5ccccc5C#N)cc34)cn2)CC1 [Example 171, 2-{4-[1-(1-acetylpiperidin-4-yl)-1H-pyrazol-4-yl]-7-aminofuro[2,3-c]pyridin-2-yl}benzonitrile]"
